Legend:
WEE1 kinase enzyme = WEE1 kinase enzyme (Homo sapiens (Human), UniProt P30291); assay: WEE1 IC50 determination, LanthaScreen Terbium labeled TR-FRET kinase assay; assay type: biochemical; details: WEE1 enzyme 1 nM
Summary of the method: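 Human WEE1 (1 nM) was preincubated 10 min with 3-fold diluted compounds, then ATP ([…]) and fluorescent PolyGT substrate (200 nM) were added for 1 h at room temperature in the dark. Terbium antibody/EDTA stop, TR-FRET read (ex 340, em 495/520 nm); IC50 from four-parameter logistic fit of percent inhibition.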

A427 cells [1] = assay: Cytotoxicity assay (resazurin), A427 cells, 72 hr; assay type: cell-based; details: Homo sapiens, A-427, read-out: Cell Viability A427 IC50
Summary of the method: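 Cells seeded at 1500 per well, grown 24 hr at 37° C, 5% CO2, then exposed to serially diluted compounds for 72–96 hr before 4–6 hr with 1 mM resazurin (Ex 535/Em 590 nm). Blank-subtracted signal normalised to DMSO control; percent inhibition used for IC50.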

A549 cells = assay: Cytotoxicity assay (resazurin), A549 cells, 96 hr; assay type: cell-based; details: Homo sapiens, read-out: Cell Viability A549 IC50
Method: A549 (CCL-185; ATCC) and A427 (HTB-53; ATCC), both lung epithelial cell lines were seeded in their respective medium (DMEM/MEM, 10569044/41090101; Gibco) at a cell count of 1500 cells per 100 μL per well in a 96 well edge plate (167425; ThermoFisher). Cells were allowed to grow at 37° C. for 24 hr in 5% CO2 environment (culture conditions) in a Nuaire incubator (humidified). Serially diluted test compounds (100 μL) within the desired testing concentration ranges were added to the culture plate were further incubated in culture conditions for 72 hr and 96 hr for A427 and A549 respectively. The experiment was terminated at the designated incubation time by replacing the medium with 100 μL of 1 mM of resazurin (R7017; Sigma) prepared in respective culture medium, and the plates were further incubated in culture conditions for 4-6 hr. Fluorescence was recorded using a multimodal plate reader (Biotek Synergy Neo) at an excitation wavelength of 535 nm and emission wavelength of 590 nm to obtain relative fluorescence units. Data analysis was done by subtracting the background fluorescence (only medium blank) value from each reading and then normalizing with the vehicle control (DMSO treated cells) to obtain percent survival/proliferation. Percent survival was then subtracted by 100 to get the percent inhibition of proliferation which was used to calculate IC50 values. Potency of compounds in other cell lines (As-Pc-1, Panc-10.05, MDAMB231, A172) was determined in an analogous manner.

LoVo cells = assay: Cell proliferation assay (Cell Titer-Glo), LoVo cells; assay type: cell-based; details: Homo sapiens, typically 72 hrs post-treatment
Method: (§1) The effects of test compounds were studied in five cell lines with various histotypes. The cancer cells (Table 4) were harvested during the logarithmic growth period and counted. Adjust cell concentrations to the appropriated number with respective medium, and add 90 μL cell suspensions to 96-well plates. After cells were seeded, the plates were shaken gently to distribute cells evenly and incubated at 37° C., 5% CO2 on day 1.
(§2) Cells were treated with test compounds at 9 concentrations within a desired concentration range (e.g. 1.5 nM-10 μM) on day 2 by series diluting the test compound stock solution (10 mM in DMSO) with culture medium. Cell viability was assessed by Cell Titer-Glo® as recommended by Promega (Cat. No.: G7572, Promega) typically 72 hrs post-treatment.
(§3) Cell viability data were plotted using GraphPad Prism (version 5, GraphPad Software, Inc., San Diego, Calif.). In addition, a nonlinear regression model with a sigmoidal dose response and variable slope within GraphPad Prism was used to calculate the IC50 value of individual test compounds.

HCT-116 cells = assay: Cell proliferation assay (Cell Titer-Glo), HCT-116 cells; assay type: cell-based; details: Homo sapiens, typically 72 hrs post-treatment, read-out: IC50 HCT116
Method: as §1, §2, §3

NCI-H460 cells = assay: Cell proliferation assay (Cell Titer-Glo), NCI-H460 cells; assay type: cell-based; details: Homo sapiens, typically 72 hrs post-treatment
Method: as §1, §2, §3

A427 cells [2] = assay: Cell proliferation assay (Cell Titer-Glo), A427 cells; assay type: cell-based; details: Homo sapiens, A-427, typically 72 hrs post-treatment
Method: as §1, §2, §3

A2780 cells = assay: Cell proliferation assay (Cell Titer-Glo), A2780 cells; assay type: cell-based; details: Homo sapiens, typically 72 hrs post-treatment
Method: as §1, §2, §3

A427 cells [3] = assay: Cell viability in combination with cisplatin in A427 cells (resazurin); assay type: cell-based; details: Homo sapiens, A-427, 24 hr 2.5 μM cisplatin
Method: The activity of test compounds in combination with cisplatin in A427 cells was determined. Cells were seeded in a 96 well plate at 2000 cells/well. The next day, cells were treated with 2.5 μM cisplatin or vehicle (1×PBS) and incubated in culture conditions (37° C., 5% CO2) for 24 hr. Following the incubation, culture medium was replaced with medium containing test compound and cisplatin/vehicle, and cells were further incubated in culture conditions for another 72 hr. By this procedure, cisplatin was either continued or discontinued after an initial 24-hr incubation. Addition of test compound was in concentrations needed to obtain an 8-point dose response curve, with concentrations prepared by 3-fold dilution. The assay was terminated upon addition of resazurin, incubation for 4 hr in culture conditions and measurement of fluorescence at excitation and emission wavelengths of 535 and 590 nm, respectively.

CDC2 at Tyr15 residue = details: in combination with gemcitabine, carboplatin, or cisplatin; cited from earlier work

WEE1 kinase enzyme, sequence (P30291 whole entry): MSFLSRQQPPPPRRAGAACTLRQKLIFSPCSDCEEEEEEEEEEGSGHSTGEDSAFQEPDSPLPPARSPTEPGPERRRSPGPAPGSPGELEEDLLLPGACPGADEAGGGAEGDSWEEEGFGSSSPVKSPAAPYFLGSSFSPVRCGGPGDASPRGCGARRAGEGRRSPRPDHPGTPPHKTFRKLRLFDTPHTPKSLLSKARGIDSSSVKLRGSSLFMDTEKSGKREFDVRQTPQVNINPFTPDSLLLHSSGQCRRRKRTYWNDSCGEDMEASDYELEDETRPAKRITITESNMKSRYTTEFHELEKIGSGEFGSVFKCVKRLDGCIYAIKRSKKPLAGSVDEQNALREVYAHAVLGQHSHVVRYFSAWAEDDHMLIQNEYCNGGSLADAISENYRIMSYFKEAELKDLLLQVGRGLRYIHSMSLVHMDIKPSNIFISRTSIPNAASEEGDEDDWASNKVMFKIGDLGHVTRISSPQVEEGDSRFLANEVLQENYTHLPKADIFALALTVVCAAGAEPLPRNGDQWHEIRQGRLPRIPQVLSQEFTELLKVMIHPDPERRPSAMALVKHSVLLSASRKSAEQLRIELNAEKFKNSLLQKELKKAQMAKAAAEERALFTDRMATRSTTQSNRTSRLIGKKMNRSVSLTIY

| IC50 (WEE1 kinase enzyme) [nM] | IC50 (LoVo cells) [nM] | IC50 (HCT-116 cells) [nM] | IC50 (NCI-H460 cells) [nM] | IC50 (A2780 cells) [nM] | SMILES | IC50 (A427 cells [1]) [nM] | IC50 (A549 cells) [nM] | IC50 (A427 cells [2]) [nM] | IC50 (A427 cells [3]; then compound + cisplatin 72 hr, read-out: Cell viability IC50 in A427 cells with 2.5 μM cisplatin: 24 hr cisplatin then compound + cisplatin) [nM] | IC50 (A427 cells [3]; then compound alone 72 hr, read-out: Cell viability IC50 in A427 cells with 2.5 μM cisplatin: 24 hr cisplatin then compound) [nM] | Phosphorylation of CDC2 at Tyr15 (CDC2 at Tyr15 residue) |
| --- | --- | --- | --- | --- | --- | --- | --- | --- | --- | --- | --- |
| 40 | 8260 | 8120 | > 10000 |  | CC1(C)CN(C(=O)CO)Cc2cc(Nc3ncc4c(n3)OCN(c3c(Cl)cccc3Cl)C4=O)ccc21 [Example 1.3] | 4520 | 2990 | 5980 |  |  |  |
| 11 |  |  |  | 3850 | CC1(C)CNCc2cc(Nc3ncc4c(n3)OCN(c3c(Cl)cccc3Cl)C4=O)ccc21 [Example 1.10] | 1990 | 2600 | 1660 | < 14 | 360 |  |
|  |  |  |  |  | C=CCn1c(=O)c2cnc(Nc3ccc(N4CCN(C)CC4)cc3)nc2n1-c1cccc(C(C)(C)O)n1 [MK-1775, 1,2-allyl-1-(6-(2-hydroxypropan-2-yl)pyridin-2-yl)-6-((4-(4methylpiperazin-1-yl)phenyl)amino)-1H-pyrazolo[3,4-d]pyrimidin-3 (2H)-one] |  |  |  |  |  | abolished the phosphorylation of CDC2 at Tyr15 residue |

Source: US10807994B2, “Heterocyclic compounds and uses thereof” (NUVATION BIO INC., priority 2017, dated 2020)
